From the supplement of paper PMC12463676, “Small-molecule dissolution of stress granules by redox modulation benefits ALS models” (Nature Chemical Biology, 2025)

Tests used:
[1] = compound: O=[As]([O-])(O)O.[K+] [potassium arsenate]; experiment: thermal stability z-score vs DMSO; higher = more thermally stabilized by treatment; conditions: HeLa; arsenate concentration 1 mM
Experimental: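 Cellular thermal proteome profiling in HeLa cells treated with 1 mM arsenate for 1 h (DMSO pretreatment), heated to ten temperatures (37-66.3 °C). Soluble protein was quantified by TMT mass spectrometry relative to DMSO controls; the thermal stability score was transformed to a z-score; mean of n = 3 experiments.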

[2] = compound: NC(=O)CCCCC1CCSS1 [lipoamide]; experiment: as above; conditions: HeLa, lipoamide concentration 100 µM
Experimental: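 Cellular thermal proteome profiling in HeLa cells. Cells were treated with 100 µM lipoamide for 1 h, with or without 1 mM arsenate for a further 1 h, then heated to ten temperatures (37-66.3 °C), and soluble protein was quantified by TMT mass spectrometry relative to 0.1% DMSO controls. The thermal stability score (sum of log2 fold changes minus the abundance score) was transformed to a z-score; mean of n = 3 experiments.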

[3] = arsenate co-treatment: 1 mM arsenate 1 h
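Also: each temperature applied for 3 min, abundance score taken as mean log2 fold change at the two lowest temperatures, z-score obtained by mean subtraction and division by SD.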

UniProt Q13636, sequence (Q13636 whole entry): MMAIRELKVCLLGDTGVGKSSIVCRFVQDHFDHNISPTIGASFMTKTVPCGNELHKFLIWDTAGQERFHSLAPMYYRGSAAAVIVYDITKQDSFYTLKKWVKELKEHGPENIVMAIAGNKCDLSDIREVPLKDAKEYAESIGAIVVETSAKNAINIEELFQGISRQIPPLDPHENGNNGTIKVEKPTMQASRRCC
UniProt P78346, sequence (P78346 whole entry): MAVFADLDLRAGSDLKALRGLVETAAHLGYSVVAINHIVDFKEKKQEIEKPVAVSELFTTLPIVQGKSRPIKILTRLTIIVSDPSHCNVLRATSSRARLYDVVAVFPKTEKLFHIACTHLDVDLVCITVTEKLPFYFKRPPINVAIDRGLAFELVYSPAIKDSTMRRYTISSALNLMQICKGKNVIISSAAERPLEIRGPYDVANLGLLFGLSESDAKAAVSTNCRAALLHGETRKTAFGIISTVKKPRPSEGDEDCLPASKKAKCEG
UniProt P80217, sequence (P80217 whole entry): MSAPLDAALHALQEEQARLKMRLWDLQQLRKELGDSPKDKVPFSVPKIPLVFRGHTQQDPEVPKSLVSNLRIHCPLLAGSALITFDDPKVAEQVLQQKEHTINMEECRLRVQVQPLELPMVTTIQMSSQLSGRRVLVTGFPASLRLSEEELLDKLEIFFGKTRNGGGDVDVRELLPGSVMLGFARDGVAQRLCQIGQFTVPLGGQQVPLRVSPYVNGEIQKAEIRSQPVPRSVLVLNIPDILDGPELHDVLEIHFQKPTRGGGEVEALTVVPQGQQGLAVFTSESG
UniProt O15315, sequence (O15315 whole entry): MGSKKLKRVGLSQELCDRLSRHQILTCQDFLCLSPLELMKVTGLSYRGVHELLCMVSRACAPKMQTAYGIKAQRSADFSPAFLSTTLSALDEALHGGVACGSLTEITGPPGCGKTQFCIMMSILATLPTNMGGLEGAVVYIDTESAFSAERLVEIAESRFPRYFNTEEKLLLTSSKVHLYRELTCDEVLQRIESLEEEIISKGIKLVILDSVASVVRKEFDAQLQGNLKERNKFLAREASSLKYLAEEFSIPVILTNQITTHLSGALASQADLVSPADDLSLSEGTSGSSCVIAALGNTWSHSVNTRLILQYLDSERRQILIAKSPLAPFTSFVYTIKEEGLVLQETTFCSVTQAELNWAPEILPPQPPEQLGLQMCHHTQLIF
UniProt Q9BVL4, sequence (Q9BVL4 whole entry): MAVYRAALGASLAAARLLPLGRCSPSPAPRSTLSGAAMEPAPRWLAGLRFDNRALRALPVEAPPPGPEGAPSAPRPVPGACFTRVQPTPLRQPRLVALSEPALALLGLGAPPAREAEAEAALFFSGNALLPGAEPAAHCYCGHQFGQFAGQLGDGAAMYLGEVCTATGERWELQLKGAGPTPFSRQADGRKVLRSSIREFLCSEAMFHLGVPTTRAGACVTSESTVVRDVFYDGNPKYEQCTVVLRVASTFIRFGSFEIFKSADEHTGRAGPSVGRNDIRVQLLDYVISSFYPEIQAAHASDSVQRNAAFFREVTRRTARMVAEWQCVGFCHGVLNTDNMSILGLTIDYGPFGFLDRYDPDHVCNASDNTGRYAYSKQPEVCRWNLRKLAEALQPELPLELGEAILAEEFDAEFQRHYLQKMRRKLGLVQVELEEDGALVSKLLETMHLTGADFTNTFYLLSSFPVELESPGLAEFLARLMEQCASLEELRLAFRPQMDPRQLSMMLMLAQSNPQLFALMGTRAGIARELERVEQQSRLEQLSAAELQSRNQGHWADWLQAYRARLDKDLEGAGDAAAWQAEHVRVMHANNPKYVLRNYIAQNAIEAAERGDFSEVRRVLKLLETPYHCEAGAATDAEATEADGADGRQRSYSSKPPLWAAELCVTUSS
UniProt Q14978, sequence (Q14978 whole entry): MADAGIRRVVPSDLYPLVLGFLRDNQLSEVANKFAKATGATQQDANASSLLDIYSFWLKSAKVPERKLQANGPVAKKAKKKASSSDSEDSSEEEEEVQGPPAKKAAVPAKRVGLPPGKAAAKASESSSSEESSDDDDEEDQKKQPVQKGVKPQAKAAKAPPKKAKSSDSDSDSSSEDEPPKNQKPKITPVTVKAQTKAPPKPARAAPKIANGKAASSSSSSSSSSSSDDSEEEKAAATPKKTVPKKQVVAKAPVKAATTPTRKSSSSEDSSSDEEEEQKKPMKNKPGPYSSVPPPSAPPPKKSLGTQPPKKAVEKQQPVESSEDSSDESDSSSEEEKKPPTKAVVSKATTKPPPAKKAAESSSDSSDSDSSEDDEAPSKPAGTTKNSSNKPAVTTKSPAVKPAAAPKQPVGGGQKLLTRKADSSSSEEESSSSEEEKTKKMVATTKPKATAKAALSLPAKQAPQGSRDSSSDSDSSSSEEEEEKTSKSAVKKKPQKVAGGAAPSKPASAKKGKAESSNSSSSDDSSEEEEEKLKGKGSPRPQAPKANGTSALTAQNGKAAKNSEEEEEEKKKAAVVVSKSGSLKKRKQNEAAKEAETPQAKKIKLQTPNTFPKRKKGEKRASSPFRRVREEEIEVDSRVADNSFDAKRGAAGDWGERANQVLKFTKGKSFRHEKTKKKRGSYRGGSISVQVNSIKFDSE
UniProt Q49B96, sequence (Q49B96 whole entry): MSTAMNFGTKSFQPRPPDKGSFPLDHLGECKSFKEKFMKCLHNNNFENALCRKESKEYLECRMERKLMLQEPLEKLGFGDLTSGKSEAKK
UniProt P14735, sequence (P14735 whole entry): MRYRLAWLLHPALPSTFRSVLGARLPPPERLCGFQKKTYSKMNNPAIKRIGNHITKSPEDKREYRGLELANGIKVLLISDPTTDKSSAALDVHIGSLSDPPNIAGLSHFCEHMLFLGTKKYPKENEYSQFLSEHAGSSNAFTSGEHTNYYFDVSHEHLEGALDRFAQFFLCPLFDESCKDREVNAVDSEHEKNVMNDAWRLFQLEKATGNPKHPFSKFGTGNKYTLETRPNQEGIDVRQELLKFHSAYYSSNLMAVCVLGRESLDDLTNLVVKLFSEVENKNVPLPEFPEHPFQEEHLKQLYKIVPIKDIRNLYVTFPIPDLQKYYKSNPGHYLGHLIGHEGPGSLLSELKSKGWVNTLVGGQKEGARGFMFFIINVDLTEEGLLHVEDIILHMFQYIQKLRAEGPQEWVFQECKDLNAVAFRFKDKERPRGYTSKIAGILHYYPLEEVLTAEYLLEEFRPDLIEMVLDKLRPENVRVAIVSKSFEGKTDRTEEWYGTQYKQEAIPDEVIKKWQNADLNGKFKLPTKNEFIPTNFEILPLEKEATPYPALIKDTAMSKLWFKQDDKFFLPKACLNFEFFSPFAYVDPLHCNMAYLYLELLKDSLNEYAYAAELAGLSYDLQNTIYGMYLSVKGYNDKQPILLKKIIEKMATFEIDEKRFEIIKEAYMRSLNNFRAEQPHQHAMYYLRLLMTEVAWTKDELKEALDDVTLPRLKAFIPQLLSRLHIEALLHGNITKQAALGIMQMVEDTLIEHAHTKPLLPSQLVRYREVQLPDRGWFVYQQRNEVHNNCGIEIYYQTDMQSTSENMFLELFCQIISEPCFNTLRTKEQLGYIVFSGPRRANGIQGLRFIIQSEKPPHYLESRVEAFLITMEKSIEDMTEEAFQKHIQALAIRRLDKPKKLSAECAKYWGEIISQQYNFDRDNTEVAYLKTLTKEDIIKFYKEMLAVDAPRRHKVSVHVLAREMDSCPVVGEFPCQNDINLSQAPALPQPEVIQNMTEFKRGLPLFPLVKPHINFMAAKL
UniProt Q709F0, sequence (Q709F0 whole entry): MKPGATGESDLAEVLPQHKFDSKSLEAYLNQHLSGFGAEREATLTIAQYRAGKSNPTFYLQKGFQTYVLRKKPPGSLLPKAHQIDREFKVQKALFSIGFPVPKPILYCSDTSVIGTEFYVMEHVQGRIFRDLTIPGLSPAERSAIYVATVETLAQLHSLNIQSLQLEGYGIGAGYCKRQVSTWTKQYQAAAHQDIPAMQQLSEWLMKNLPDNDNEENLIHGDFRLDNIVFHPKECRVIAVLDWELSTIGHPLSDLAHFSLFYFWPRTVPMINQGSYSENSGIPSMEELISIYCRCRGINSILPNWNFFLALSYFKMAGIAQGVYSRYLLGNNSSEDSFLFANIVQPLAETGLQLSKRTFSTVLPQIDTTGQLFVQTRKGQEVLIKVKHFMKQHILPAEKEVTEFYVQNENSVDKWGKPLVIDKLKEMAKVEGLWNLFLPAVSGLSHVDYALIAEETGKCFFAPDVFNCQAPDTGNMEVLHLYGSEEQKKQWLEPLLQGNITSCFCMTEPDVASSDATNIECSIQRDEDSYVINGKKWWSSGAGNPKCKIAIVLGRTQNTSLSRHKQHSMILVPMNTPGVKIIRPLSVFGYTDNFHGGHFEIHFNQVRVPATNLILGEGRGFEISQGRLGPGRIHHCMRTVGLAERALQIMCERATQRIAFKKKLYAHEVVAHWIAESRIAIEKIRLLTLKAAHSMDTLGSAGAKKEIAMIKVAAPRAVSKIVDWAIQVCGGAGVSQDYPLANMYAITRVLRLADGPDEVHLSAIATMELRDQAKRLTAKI
UniProt Q16527, sequence (Q16527 whole entry): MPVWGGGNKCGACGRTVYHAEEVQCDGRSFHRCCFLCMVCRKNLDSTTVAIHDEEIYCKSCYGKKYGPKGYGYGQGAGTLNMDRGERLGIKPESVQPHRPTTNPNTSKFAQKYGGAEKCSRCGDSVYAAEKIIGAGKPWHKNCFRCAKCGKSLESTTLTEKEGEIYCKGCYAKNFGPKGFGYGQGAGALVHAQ
UniProt Q86W42, sequence (Q86W42 whole entry): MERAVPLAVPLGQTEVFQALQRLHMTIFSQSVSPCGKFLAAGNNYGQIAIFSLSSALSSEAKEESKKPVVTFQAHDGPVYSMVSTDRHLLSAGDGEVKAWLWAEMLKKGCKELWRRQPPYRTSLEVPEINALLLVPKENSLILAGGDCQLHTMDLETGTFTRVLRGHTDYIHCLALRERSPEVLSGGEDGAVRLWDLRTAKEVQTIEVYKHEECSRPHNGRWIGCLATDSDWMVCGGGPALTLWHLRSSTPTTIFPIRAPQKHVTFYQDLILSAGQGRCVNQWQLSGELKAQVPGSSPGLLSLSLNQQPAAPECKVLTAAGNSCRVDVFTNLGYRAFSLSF

| Target | thermal stability z-score [1] | thermal stability z-score [2, 3] | thermal stability z-score ([2]; arsenate co-treatment: none) |
| --- | --- | --- | --- |
| CDC37L1 (UniProt Q7L3B6) | 0.23 | -0.275 | -0.0638 |
| UBR1 (UniProt Q8IWV7) | -0.191 | -0.198 | 0.193 |
| RPP30 (UniProt P78346) | -1.55 | -0.9 | -0.668 |
| PGM2 (UniProt Q96G03) | -0.24 | -0.0134 | -0.155 |
| IDE (UniProt P14735) | 1.24 | 0.708 | 0.717 |
| CC2D1A (UniProt Q6P1N0) | -0.0172 | 0.117 | 0.0816 |
| IFI35 (UniProt P80217) | 2.08 | 1.36 | 0.774 |
| ERBB2 (UniProt P04626) | 0.0442 | 0.166 | 0.0799 |
| NOLC1 (UniProt Q14978) | -0.695 | 0.36 | 0.113 |
| ITGAV (UniProt P06756) | -0.323 | -0.283 | -0.316 |
| MYCBP2 (UniProt O75592) | -0.207 | -0.0354 | 0.179 |
| RAP1GAP (UniProt P47736) | 0.233 | -0.459 | -0.26 |
| CSRP2 (UniProt Q16527) | -0.0511 | 0.688 | 0.0492 |
| ACAD11 (UniProt Q709F0) | -0.343 | -0.363 | 0.0251 |
| CHST14 (UniProt Q8NCH0) | -0.359 | -0.943 | -0.167 |
| THOC6 (UniProt Q86W42) | 0.429 | 0.337 | 0.402 |
| TRMT2A (UniProt Q8IZ69) | -0.216 | -0.235 | -0.172 |
| PPP6R3 (UniProt Q5H9R7) | 0.262 | 1.14 | 0.331 |

| Target | thermal stability z-score [1] | thermal stability z-score [2, 3] | thermal stability z-score ([2]; arsenate co-treatment: none) |
| --- | --- | --- | --- |
| SNX8 (UniProt Q9Y5X2) | -0.369 | 1.1 | -0.149 |
| RAB31 (UniProt Q13636) | 0.42 | 0.762 | 0.822 |
| MYO1C (UniProt O00159) | -1.94 | 1.12 | 0.329 |
| ANKRD52 (UniProt Q8NB46) | -0.372 | -0.69 | -0.0975 |
| YRDC (UniProt Q86U90) | 0.341 | 0.45 | 0.0491 |
| PUS7L (UniProt Q9H0K6) | -0.0157 | 0.3 | 0.174 |
| DDX6 (UniProt P26196) | 1.01 | 0.414 | 0.53 |
| COX19 (UniProt Q49B96) | 0.412 | 0.659 | 0.945 |
| E2F4 (UniProt Q16254) | 0.373 | 0.295 | 0.54 |
| COPRS (UniProt Q9NQ92) | -0.822 | 0.227 | 0.791 |
| RAD51B (UniProt O15315) | 0.578 | 0.231 | 0.428 |
| SELO (UniProt Q9BVL4) | -0.536 | -0.214 | -0.211 |
| DCP1A (UniProt Q9NPI6) | -0.248 | -0.2 | -0.107 |
| MRPS33 (UniProt Q9Y291) | 0.00906 | 0.0616 | 0.0342 |
| SLC35E1 (UniProt Q96K37) | -1.27 | -2.03 | -1.92 |
| DPYD (UniProt Q12882) | 0.0708 | 0.0898 | 0.178 |
| PHACTR2 (UniProt O75167) | -0.387 | 0.56 | -0.408 |
| CNDP2 (UniProt Q96KP4) | 0.248 | 0.517 | 0.0712 |
